Source: patent publication US20200360352A1, “USE OF RIFAMYCIN-NITROIMIDAZOLE COUPLING MOLECULE” (priority 2019, published 2020)
In brackets after ≈: the same amount, converted by molar mass. Read-outs that look alike come from different tables or passages of the source.

Key:
Mycobacterium abscessus [1] = assay: MIC, micro broth dilution with resazurin readout; format: cell-based; settings: Mycobacteroides abscessus, read-out: Minimum Inhibitory Concentration (MIC)
Mycobacterium kansasii [2] = assay: MBC, plating of MIC wells and CFU count; format: cell-based; settings: read-out: Minimum Bactericidal Concentration (MBC)
Mycobacterium avium [3] = assay: MIC, micro broth dilution with resazurin readout; format: cell-based; settings: read-out: Minimum Inhibitory Concentration (MIC)
Mycobacterium kansasii [4] = assay: MIC, micro broth dilution with resazurin readout; format: cell-based; settings: read-out: Minimum Inhibitory Concentration (MIC)
[5] = system: Mycobacterium massiliense; assay: MIC, micro broth dilution with resazurin readout; format: cell-based; settings: Mycobacteroides abscessus, MH Culture Medium, read-out: Minimum Inhibitory Concentration (MIC)
Mycobacterium abscessus [6] = assay: MBC, plating of MIC wells and CFU count; format: cell-based; settings: Mycobacteroides abscessus, read-out: Minimum Bactericidal Concentration (MBC)
Mycodacterium chelonei = assay: MIC, micro broth dilution with resazurin readout; format: cell-based; settings: MH Culture Medium; Chelonei (standard strain); read-out: Minimum Inhibitory Concentration (MIC)
Mycobacterium avium [7] = assay: MBC, plating of MIC wells and CFU count; format: cell-based; settings: read-out: Minimum Bactericidal Concentration (MBC)
Mycobacterium fortuitum = assay: MIC, micro broth dilution with resazurin readout; format: cell-based; settings: Mycolicibacterium fortuitum, MH Culture Medium, read-out: Minimum Inhibitory Concentration (MIC)
[8] = system: Mycobacterium intracellulare; assay: MIC, micro broth dilution with resazurin readout; format: cell-based; settings: MH Culture Medium, read-out: Minimum Inhibitory Concentration (MIC)
NTM = assay: In-vitro activity against NTM, overall conclusion; format: cell-based, nontuberculous mycobacteria; settings: overall conclusion from Tables 1-3
Procedure: In this embodiment, an inhibitory test is performed on pathogenic bacteria, i.e. Mycobacterium avium, Mycobacterium abscessus and Mycobacterium kansasii belonging to the nontuberculous mycobacteria using the rifamycin-nitroimidazole coupling molecule of the present invention and positive controls, and then Minimum Inhibitory Concentration (MIC) and Minimum Bactericidal Concentration (MBC) are obtained. Clarithromycin, moxifloxacin, amikacin, rifampicin, rifabutin, ciprofloxacin and metronidazole are used as positive controls. The test strains are provided by KnowBio company, and the Chinese clinically isolated strains are derived from Shanghai Pulmonary Hospital.
The inhibitory test of this embodiment is performed by the micro broth dilution method using two different culture mediums: (1) MH (Mueller-Hinton) micro broth dilution method: using MH culture medium (or culture solution), wherein the concentration of calcium and magnesium ions in MH broth (cation-adjusted) is consistent with that in the Guideline of the Clinical and Laboratory Standards Institute (CLSI; M7-A7); and (2) 7H9 micro broth dilution method: using 7H9 culture medium (or culture solution, provided by Sigma-Aldrich).

[9] = 7H9 Broth, Mycobacterium avium Rough
[10] = 7H9 Broth, Mycobacterium avium Smooth
[11] = MH Broth, Mycobacterium avium Rough
[12] = MH Broth, Mycobacterium avium Smooth
[13] = MH Culture Medium, Avium (standard strain)
[14] = MH Culture Medium, clinically isolated strain Avium (S31)
[15] = MH Culture Medium, clinically isolated strain Avium (S123)
[16] = MH Culture Medium, clinically isolated strain Avium (S559)
[17] = MH Culture Medium, clinically isolated strain Avium (S568)
[18] = MH Culture Medium, clinically isolated strain Avium (S577)
[19] = MH Culture Medium, clinically isolated strain Avium (S597)
[20] = MH Culture Medium, clinically isolated strain Avium (S602)
[21] = MH Culture Medium, Kansasii (standard strain)
[22] = MH Culture Medium, clinically isolated strain Kansasii (S9)
[23] = MH Culture Medium, clinically isolated strain Kansasii (S199)
[24] = MH Culture Medium, clinically isolated strain Kansasii (S520)
[25] = MH Culture Medium, clinically isolated strain Kansasii (S609)
[26] = clinically isolated strain Massiliense (D10)
[27] = clinically isolated strain Massiliense (D14)
[28] = clinically isolated strain Massiliense (D18)
[29] = clinically isolated strain Fortuitum (S103)
[30] = clinically isolated strain Fortuitum (S111)
[31] = Intracellulare (standard strain)
[32] = clinically isolated strain Intracellulare (S90)
[33] = clinically isolated strain Intracellulare (S261)
[34] = clinically isolated strain Intracellulare (S269)
[35] = clinically isolated strain Intracellulare (S290)
[36] = clinically isolated strain Intracellulare (S291)
[37] = clinically isolated strain Intracellulare (S298)
[38] = clinically isolated strain Intracellulare (S442)
[39] = clinically isolated strain Intracellulare (S541)
[40] = clinically isolated strain Intracellulare (S623)
[41] = clinically isolated strain Intracellulare (ZPS)

**Q.** What does the source list for CO[C@H]1/C=C/O[C@@]2(C)Oc3c(C)c(O)c4c(c3C2=O)C2=NC3(CCN(CCn5c([N+](=O)[O-])cnc5C)CC3)NC2=C(NC(=O)/C(C)=C\C=C\[C@H](C)[C@H](O)[C@@H](C)[C@@H](O)[C@@H](C)[C@H](OC(C)=O)[C@@H]1C)C4=O [Compound I]?
**A.** MIC (Mycobacterium abscessus [1]; 7H9 Broth): 1 µg/mL (≈ 1.06 µM); MIC (Mycobacterium abscessus [1]; MH Broth): 1 µg/mL (≈ 1.06 µM); MBC (Mycobacterium kansasii [2]; 7H9 Broth): 8 µg/mL (≈ 8.47 µM); MBC (Mycobacterium kansasii [2]; MH Broth): 2 µg/mL (≈ 2.12 µM); MIC (Mycobacterium avium [3]; [9]): 4 µg/mL (≈ 4.24 µM); MIC (Mycobacterium avium [3]; [10]): 4 µg/mL (≈ 4.24 µM); MIC (Mycobacterium avium [3]; [11]): 4 µg/mL (≈ 4.24 µM); MIC (Mycobacterium avium [3]; [12]): 4 µg/mL (≈ 4.24 µM); MIC (Mycobacterium avium [3]; [13]): 0.0625 µg/mL (≈ 0.0662 µM); MIC (Mycobacterium avium [3]; [14]): 0.0625 µg/mL (≈ 0.0662 µM); MIC (Mycobacterium avium [3]; [15]): 0.0625 µg/mL (≈ 0.0662 µM); MIC (Mycobacterium avium [3]; [16]): 0.0625 µg/mL (≈ 0.0662 µM); MIC (Mycobacterium avium [3]; [17]): 0.25 µg/mL (≈ 0.265 µM); MIC (Mycobacterium avium [3]; [18]): 0.0625 µg/mL (≈ 0.0662 µM); MIC (Mycobacterium avium [3]; [19]): 0.125 µg/mL (≈ 0.132 µM); MIC (Mycobacterium avium [3]; [20]): 0.0625 µg/mL (≈ 0.0662 µM); MIC (Mycobacterium kansasii [4]; 7H9 Broth): 2 µg/mL (≈ 2.12 µM); MIC (Mycobacterium kansasii [4]; MH Broth): 2 µg/mL (≈ 2.12 µM); MIC (Mycobacterium kansasii [4]; [21]): 0.0625 µg/mL (≈ 0.0662 µM); MIC (Mycobacterium kansasii [4]; [22]): 0.0625 µg/mL (≈ 0.0662 µM); MIC (Mycobacterium kansasii [4]; [23]): 0.0625 µg/mL (≈ 0.0662 µM); MIC (Mycobacterium kansasii [4]; [24]): 0.0625 µg/mL (≈ 0.0662 µM); MIC (Mycobacterium kansasii [4]; [25]): 0.0625 µg/mL (≈ 0.0662 µM); MIC [5, 26]: 64 µg/mL (≈ 67.8 µM); MIC [5, 27]: 64 µg/mL (≈ 67.8 µM); MIC [5, 28]: 64 µg/mL (≈ 67.8 µM); MBC (Mycobacterium abscessus [6]; 7H9 Broth): 1 µg/mL (≈ 1.06 µM); MBC (Mycobacterium abscessus [6]; MH Broth): 16 µg/mL (≈ 16.9 µM); MIC (Mycodacterium chelonei): 32 µg/mL (≈ 33.9 µM); MBC (Mycobacterium avium [7]; [9]): 4 µg/mL (≈ 4.24 µM); MBC (Mycobacterium avium [7]; [10]): 16 µg/mL (≈ 16.9 µM); MBC (Mycobacterium avium [7]; [11]): 4 µg/mL (≈ 4.24 µM); MBC (Mycobacterium avium [7]; [12]): 16 µg/mL (≈ 16.9 µM); MIC (Mycobacterium fortuitum; Fortuitum (standard strain)): 16 µg/mL (≈ 16.9 µM); MIC (Mycobacterium fortuitum; [29]): > 64 µg/mL; MIC (Mycobacterium fortuitum; [30]): 4 µg/mL (≈ 4.24 µM); MIC [8, 31]: 0.0625 µg/mL (≈ 0.0662 µM); MIC [8, 32]: 0.25 µg/mL (≈ 0.265 µM); MIC [8, 33]: 0.25 µg/mL (≈ 0.265 µM); MIC [8, 34]: 0.125 µg/mL (≈ 0.132 µM); MIC [8, 35]: 0.25 µg/mL (≈ 0.265 µM); MIC [8, 36]: 0.125 µg/mL (≈ 0.132 µM); MIC [8, 37]: 0.25 µg/mL (≈ 0.265 µM); MIC [8, 38]: 0.0625 µg/mL (≈ 0.0662 µM); MIC [8, 39]: 0.125 µg/mL (≈ 0.132 µM); MIC [8, 40]: 0.25 µg/mL (≈ 0.265 µM); MIC [8, 41]: 0.0625 µg/mL (≈ 0.0662 µM); in-vitro activity against NTM (NTM): effective and broad in-vitro activity against NTM

**Q.** What does the source list for CO[C@H]1/C=C/O[C@@]2(C)Oc3c(C)c(O)c4c(O)c(c(/C=N/N5CCN(C)CC5)c(O)c4c3C2=O)NC(=O)/C(C)=C\C=C\[C@H](C)[C@H](O)[C@@H](C)[C@@H](O)[C@@H](C)[C@H](OC(C)=O)[C@@H]1C [Rifampicin]?
**A.** MIC (Mycobacterium abscessus [1]; 7H9 Broth): > 64 µg/mL; MIC (Mycobacterium abscessus [1]; MH Broth): > 64 µg/mL; MBC (Mycobacterium kansasii [2]; 7H9 Broth): 4 µg/mL (≈ 4.86 µM); MBC (Mycobacterium kansasii [2]; MH Broth): 4 µg/mL (≈ 4.86 µM); MIC (Mycobacterium avium [3]; [9]): 8 µg/mL (≈ 9.72 µM); MIC (Mycobacterium avium [3]; [10]): 0.5 µg/mL (≈ 0.608 µM); MIC (Mycobacterium avium [3]; [11]): 8 µg/mL (≈ 9.72 µM); MIC (Mycobacterium avium [3]; [12]): 1 µg/mL (≈ 1.22 µM); MIC (Mycobacterium avium [3]; [13]): 0.25 µg/mL (≈ 0.304 µM); MIC (Mycobacterium avium [3]; [14]): 0.0625 µg/mL (≈ 0.0759 µM); MIC (Mycobacterium avium [3]; [15]): 8 µg/mL (≈ 9.72 µM); MIC (Mycobacterium avium [3]; [16]): 0.125 µg/mL (≈ 0.152 µM); MIC (Mycobacterium avium [3]; [17]): 4 µg/mL (≈ 4.86 µM); MIC (Mycobacterium avium [3]; [18]): 0.125 µg/mL (≈ 0.152 µM); MIC (Mycobacterium avium [3]; [19]): 8 µg/mL (≈ 9.72 µM); MIC (Mycobacterium avium [3]; [20]): 2 µg/mL (≈ 2.43 µM); MIC (Mycobacterium kansasii [4]; 7H9 Broth): 16 µg/mL (≈ 19.4 µM); MIC (Mycobacterium kansasii [4]; MH Broth): 16 µg/mL (≈ 19.4 µM); MIC (Mycobacterium kansasii [4]; [21]): 0.125 µg/mL (≈ 0.152 µM); MIC (Mycobacterium kansasii [4]; [22]): 0.125 µg/mL (≈ 0.152 µM); MIC (Mycobacterium kansasii [4]; [23]): 0.0625 µg/mL (≈ 0.0759 µM); MIC (Mycobacterium kansasii [4]; [24]): 0.0625 µg/mL (≈ 0.0759 µM); MIC (Mycobacterium kansasii [4]; [25]): 0.0625 µg/mL (≈ 0.0759 µM); MIC [5, 26]: > 64 µg/mL; MIC [5, 27]: > 64 µg/mL; MIC [5, 28]: > 64 µg/mL; MBC (Mycobacterium abscessus [6]; 7H9 Broth): > 64 µg/mL; MBC (Mycobacterium abscessus [6]; MH Broth): > 64 µg/mL; MIC (Mycodacterium chelonei): > 64 µg/mL; MBC (Mycobacterium avium [7]; [9]): > 64 µg/mL; MBC (Mycobacterium avium [7]; [10]): 4 µg/mL (≈ 4.86 µM); MBC (Mycobacterium avium [7]; [12]): 4 µg/mL (≈ 4.86 µM); MIC (Mycobacterium fortuitum; Fortuitum (standard strain)): > 64 µg/mL; MIC (Mycobacterium fortuitum; [29]): > 64 µg/mL; MIC (Mycobacterium fortuitum; [30]): 64 µg/mL (≈ 77.8 µM); MIC [8, 31]: 0.25 µg/mL (≈ 0.304 µM); MIC [8, 32]: 8 µg/mL (≈ 9.72 µM); MIC [8, 33]: 16 µg/mL (≈ 19.4 µM); MIC [8, 34]: 4 µg/mL (≈ 4.86 µM); MIC [8, 35]: 4 µg/mL (≈ 4.86 µM); MIC [8, 36]: 4 µg/mL (≈ 4.86 µM); MIC [8, 37]: 4 µg/mL (≈ 4.86 µM); MIC [8, 38]: 2 µg/mL (≈ 2.43 µM); MIC [8, 39]: 16 µg/mL (≈ 19.4 µM); MIC [8, 40]: 8 µg/mL (≈ 9.72 µM); MIC [8, 41]: 2 µg/mL (≈ 2.43 µM)
